Measured values: the NIST ThermoML archive (doi:10.1021/je700210n)

Assay: xn = mol fraction of the nth substance listed
Conditions: Liquid, determined from the liquid sample's weight and the volume of sample.

CC [ethane] + N#N
Conditions | mass density [kg/m3]
149.97 K, x2 = 0.0702 | 558.2
169.87 K, x2 = 0.2041 | 544.8
169.91 K, x2 = 0.114 | 537.5
170 K, x2 = 0.036 | 525
209.93 K, x2 = 0.0236 | 479.7
210.04 K, x2 = 0.3352 | 482.6
249.66 K, x2 = 0.0761 | 416.5
249.98 K, x2 = 0.0518 | 414.7
250.03 K, x2 = 0.1483 | 407.9
269.91 K, x2 = 0.1969 | 350.5
269.94 K, x2 = 0.0305 | 378.2
269.97 K, x2 = 0.3581 | 284.6
270 K, x2 = 0.2503 | 332.5
270.01 K, x2 = 0.06 | 376.3

N#N [nitrogen] + C
Conditions | mass density [kg/m3]
129.98 K, x1 = 0.2952 | 648.5
129.99 K, x1 = 0.4716 | 618.7
149.93 K, x1 = 0.5938 | 413.6
149.96 K, x1 = 0.4151 | 527.4
149.97 K, x1 = 0.1389 | 602.8
149.97 K, x1 = 0.3339 | 555.8
150 K, x1 = 0.5608 | 436
150.01 K, x1 = 0.504 | 474.9
159.36 K, x1 = 0.3238 | 492
159.96 K, x1 = 0.4275 | 427.8
159.98 K, x1 = 0.0224 | 577
159.99 K, x1 = 0.2659 | 511
160 K, x1 = 0.4156 | 432.5
169.98 K, x1 = 0.2384 | 436.4
169.99 K, x1 = 0.263 | 420.1
170.01 K, x1 = 0.2279 | 442.9
170.01 K, x1 = 0.3013 | 383.6
179.98 K, x1 = 0.1281 | 390.8
179.98 K, x1 = 0.1898 | 319
